Data taken from ChEMBL document CHEMBL3885881, “DrugMatrix”.

Species: Rattus norvegicus
Assay: DrugMatrix - Regimen: Daily Repeat
Type: toxicity, organism-based, Sprague-Dawley
Design: regimen Daily Repeat, gender Male, age 6-8 weeks
Conditions: in vivo, po, route oral GAVAGE, vehicle 100 % WATER; for ABSOLUTE BASOPHIL / ABSOLUTE EOSINOPHIL / ABSOLUTE LYMPHOCYTE / ABSOLUTE MONOCYTE / ABSOLUTE SEGMENTED NEUTROPHIL / BASOPHIL / EOSINOPHIL / ERYTHROCYTE COUNT / HEMATOCRIT / HEMOGLOBIN / LEUKOCYTE COUNT / LYMPHOCYTE / MEAN CORPUSCULAR HEMOGLOBIN / MEAN CORPUSCULAR HEMOGLOBIN CONCENTRATION / MEAN CORPUSCULAR VOLUME / MONOCYTE / NEUTROPHIL / NUCLEATED RED BLOOD CELLS / PLATELET COUNT: tissue Blood; for ALANINE AMINOTRANSFERASE / ALBUMIN / ALKALINE PHOSPHATASE / ASPARTATE AMINOTRANSFERASE / BLOOD UREA NITROGEN / CARBON DIOXIDE / CHLORIDE / CHOLESTEROL / CREATINE PHOSPHOKINASE / CREATININE / GLUCOSE / LACTATE DEHYDROGENASE / LIPASE / PHOSPHORUS / POTASSIUM / SODIUM / TOTAL BILIRUBIN / TOTAL PROTEIN / URIC ACID: tissue Plasma
[1] = 0 mg/kg, 72 h, dose level Control, time 3 day
[2] = 0 mg/kg, 120 h, dose level Control, time 5 day
[3] = 2 mg/kg, 72 h, dose level Low, time 3 day

Structure (SMILES): C[C@]12C=CC(=O)C=C1CC[C@@H]1[C@@H]2[C@@H](O)C[C@@]2(C)[C@H]1CC[C@]2(O)C(=O)CO [PREDNISOLONE]
- ABSOLUTE BASOPHIL [1]: 0 CELLS/uL
- ABSOLUTE EOSINOPHIL [1]: 24 CELLS/uL
- ABSOLUTE LYMPHOCYTE [1]: 13105 CELLS/uL
- ABSOLUTE MONOCYTE [1]: 76 CELLS/uL
- ABSOLUTE SEGMENTED NEUTROPHIL [1]: 2145 CELLS/uL
- BASOPHIL [1]: 0%
- EOSINOPHIL [1]: 0.17%
- ERYTHROCYTE COUNT [1]: 5.81 x10E6/uL
- HEMATOCRIT [1]: 35.6%
- HEMOGLOBIN [1]: 13.72 G/DL
- LEUKOCYTE COUNT [1]: 15.35 x10E3/uL
- LYMPHOCYTE [1]: 85.5%
- MEAN CORPUSCULAR HEMOGLOBIN [1]: 23.62 pg
- MEAN CORPUSCULAR HEMOGLOBIN CONCENTRATION [1]: 38.55 G/DL
- MEAN CORPUSCULAR VOLUME [1]: 61.23 fL
- MONOCYTE [1]: 0.5%
- NEUTROPHIL [1]: 13.83%
- NUCLEATED RED BLOOD CELLS [1]: 0 /100WBC
- PLATELET COUNT [1]: 1189.83 x10E3/uL
- ALANINE AMINOTRANSFERASE [1]: 48.67 u/L
- ALBUMIN [1]: 4.27 G/DL
- ALKALINE PHOSPHATASE [1]: 335 u/L
- ASPARTATE AMINOTRANSFERASE [1]: 86.5 u/L
- BLOOD UREA NITROGEN [1]: 14.33 mg/dL
- CARBON DIOXIDE [1]: 29.17 mmol/L
- CHLORIDE [1]: 99.83 MEQ/L
- CHOLESTEROL [1]: 71.83 mg/dL
- CREATINE PHOSPHOKINASE [1]: 506.83 u/L
- CREATININE [1]: 0.18 mg/dL
- GLUCOSE [1]: 162.17 mg/dL
- LACTATE DEHYDROGENASE [1]: 264.5 u/L
- LIPASE [1]: 9.67 u/L
- PHOSPHORUS [1]: 11.92 mg/dL
- POTASSIUM [1]: 6.55 MEQ/L
- SODIUM [1]: 141.53 MEQ/L
- TOTAL BILIRUBIN [1]: 0.18 mg/dL
- TOTAL PROTEIN [1]: 5.87 G/DL
- URIC ACID [1]: 1.67 mg/dL
- ABSOLUTE BASOPHIL [2]: 0 CELLS/uL
- ABSOLUTE EOSINOPHIL [2]: 25.33 CELLS/uL
- ABSOLUTE LYMPHOCYTE [2]: 15680 CELLS/uL
- ABSOLUTE MONOCYTE [2]: 92.33 CELLS/uL
- ABSOLUTE SEGMENTED NEUTROPHIL [2]: 2102.33 CELLS/uL
- BASOPHIL [2]: 0%
- EOSINOPHIL [2]: 0.17%
- ERYTHROCYTE COUNT [2]: 6 x10E6/uL
- HEMATOCRIT [2]: 35.55%
- HEMOGLOBIN [2]: 14.12 G/DL
- LEUKOCYTE COUNT [2]: 17.9 x10E3/uL
- LYMPHOCYTE [2]: 87.33%
- MEAN CORPUSCULAR HEMOGLOBIN [2]: 23.65 pg
- MEAN CORPUSCULAR HEMOGLOBIN CONCENTRATION [2]: 39.77 G/DL
- MEAN CORPUSCULAR VOLUME [2]: 59.52 fL
- MONOCYTE [2]: 0.5%
- NEUTROPHIL [2]: 12%
- NUCLEATED RED BLOOD CELLS [2]: 0.17 /100WBC
- PLATELET COUNT [2]: 1325.67 x10E3/uL
- ALANINE AMINOTRANSFERASE [2]: 56.17 u/L
- ALBUMIN [2]: 4.23 G/DL
- ALKALINE PHOSPHATASE [2]: 371.5 u/L
- ASPARTATE AMINOTRANSFERASE [2]: 91 u/L
- BLOOD UREA NITROGEN [2]: 15.33 mg/dL
- CARBON DIOXIDE [2]: 27.67 mmol/L
- CHLORIDE [2]: 99.5 MEQ/L
- CHOLESTEROL [2]: 66.5 mg/dL
- CREATINE PHOSPHOKINASE [2]: 518.5 u/L
- CREATININE [2]: 0.18 mg/dL
- GLUCOSE [2]: 143.33 mg/dL
- LACTATE DEHYDROGENASE [2]: 238.83 u/L
- LIPASE [2]: 9.33 u/L
- PHOSPHORUS [2]: 10.68 mg/dL
- POTASSIUM [2]: 6.5 MEQ/L
- SODIUM [2]: 141.88 MEQ/L
- TOTAL BILIRUBIN [2]: 0.18 mg/dL
- TOTAL PROTEIN [2]: 6 G/DL
- URIC ACID [2]: 1.63 mg/dL
- ABSOLUTE BASOPHIL [3]: 0 CELLS/uL
- ABSOLUTE EOSINOPHIL [3]: 0 CELLS/uL
- ABSOLUTE LYMPHOCYTE [3]: 13282 CELLS/uL
- ABSOLUTE MONOCYTE [3]: 183.67 CELLS/uL
- ABSOLUTE SEGMENTED NEUTROPHIL [3]: 1434.33 CELLS/uL
- BASOPHIL [3]: 0%
- EOSINOPHIL [3]: 0%
- ERYTHROCYTE COUNT [3]: 5.89 x10E6/uL
- HEMATOCRIT [3]: 36.9%
- HEMOGLOBIN [3]: 14.23 G/DL
- LEUKOCYTE COUNT [3]: 14.9 x10E3/uL
- LYMPHOCYTE [3]: 88.67%
- MEAN CORPUSCULAR HEMOGLOBIN [3]: 24.17 pg
- MEAN CORPUSCULAR HEMOGLOBIN CONCENTRATION [3]: 38.57 G/DL
- MEAN CORPUSCULAR VOLUME [3]: 62.63 fL
- MONOCYTE [3]: 1%
- NEUTROPHIL [3]: 10.33%
- NUCLEATED RED BLOOD CELLS [3]: 0 /100WBC
- PLATELET COUNT [3]: 1283.33 x10E3/uL
- ALANINE AMINOTRANSFERASE [3]: 48.33 u/L
- ALBUMIN [3]: 4.37 G/DL
- ALKALINE PHOSPHATASE [3]: 335.33 u/L
- ASPARTATE AMINOTRANSFERASE [3]: 82.67 u/L
- BLOOD UREA NITROGEN [3]: 15.67 mg/dL
- CARBON DIOXIDE [3]: 25.33 mmol/L
- CHLORIDE [3]: 101.33 MEQ/L
- CHOLESTEROL [3]: 64.67 mg/dL
- CREATINE PHOSPHOKINASE [3]: 495.33 u/L
- CREATININE [3]: 0.15 mg/dL
- GLUCOSE [3]: 167.67 mg/dL
- LACTATE DEHYDROGENASE [3]: 139 u/L
- LIPASE [3]: 9.67 u/L
- PHOSPHORUS [3]: 12.63 mg/dL
- POTASSIUM [3]: 5.96 MEQ/L
- SODIUM [3]: 144.8 MEQ/L
- TOTAL BILIRUBIN [3]: 0.17 mg/dL
- TOTAL PROTEIN [3]: 6.1 G/DL
- URIC ACID [3]: 1.97 mg/dL
